Experimental data published in publication PMC8294059, “Identification and Immune Assessment of T Cell Epitopes in Five Plasmodium falciparum Blood Stage Antigens to Facilitate Vaccine Candidate Selection and Optimization” (Frontiers in Immunology, 2021).
pIC50: −log10 of the molar value. Where two headings read alike, the source gives them in different places. Where a SMILES comes first, the peptide text is derived from it.

Key:
HLA-DRB1*0101 = target: T1, HLA-DRB1*0101 (Homo sapiens, UniProt P01903+P01911, A100R/D57E/F55L/F60I/F76Y/I96L/L162R/M171V/P40L/Q125E/R42F/V115G/Y59C); assay: biochemical; type: binding
T1 construct: purchased
Method: (§1) The binding assay conducted by EpiVax yields an indirect measure of peptide-MHC affinity as it utilizes a competition assay format per the methodology described in Steere et al. ([35]). […] Post incubation, the mixtures are moved to a 96-well plate coated with anti-HLA-DR antibody to capture HLA-peptide complexes. Time-resolved fluorescence measurement of the bound labeled reference peptide complex present in each mixture is detected with a europium-linked probe via fluorescent spectrophotometry using a SpectraMax M5 system. HLA binding affinity of each test peptide is expressed as the percent inhibition of reference peptide binding. Percent inhibition values (across the test peptide titration range) are used to calculate the half maximal inhibitory concentration (IC50) of each test peptide. For these studies, test peptides were assessed using a range of final concentrations from 100,000 nM to 100 nM. The panel of commercially-available HLA-DRB1 allele monomers used includes: *0101, *0301, *0401, *0701, *0801, *1101, *1301 and *1501. EpiVax established HLA-DRB1 binding affinity cutoffs were used to rank the IC50 values.
(§2) In vitro HLA binding assays (step 2 of workflow shown in Figure 1 ) were carried out with the synthesized peptides to verify the EpiMatrix outputs and provide a measure of accuracy for comparing in silico-predicted HLA-DRB1 allele binding to laboratory assessments of HLA-DRB1 allele binding. These assessments were conducted using a competition assay format whereby IC50 values were calculated based on the ability of the test peptide to compete with a labeled, high binding affinity reference peptide for HLA-DRB1 molecule binding. Sequences for the high affinity reference peptides and the negative control peptide, known not to bind any of the HLA-DRB1 molecules, are provided in Table S18 .

HLA-DRB1*1101 = HLA-DRB1*1101 (Homo sapiens, UniProt P01903+P01911, A100R/A169T/A87E/I96F/K41T/L162R/M171V/P40S/Q125H/Q178H/Q39Y/Q99D/R42S/S66Y/T262R/V115G/W38E); assay: biochemical; type: binding; conditions: binding inhibition assay; NB = non-binder (no dose-dependent inhibition); read-out: DRB1*1101 IC50
Chain of HLA-DRB1*1101 (P01903 26-254 limits assumed, other chains not shown): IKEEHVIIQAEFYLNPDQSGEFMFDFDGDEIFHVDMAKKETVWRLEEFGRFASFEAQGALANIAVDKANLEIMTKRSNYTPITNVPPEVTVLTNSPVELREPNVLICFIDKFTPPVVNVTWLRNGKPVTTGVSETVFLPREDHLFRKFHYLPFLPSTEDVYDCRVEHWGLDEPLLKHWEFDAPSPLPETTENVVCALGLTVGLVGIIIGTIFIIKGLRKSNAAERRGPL
Method: as §1, §2

HLA-DRB1*1301 = HLA-DRB1*1301 (Homo sapiens, UniProt P01903+P01911, A100E/A169T/K41T/L162R/M171V/P40S/Q125H/Q178H/Q39Y/Q99D/R42S/S66N/T262R/W38E/Y61H); assay: biochemical; type: binding; conditions: read-out: DRB1*1301 IC50
Method: as §1, §2

HLA-DRB1*1501 = target: T2, HLA-DRB1*1501 (Homo sapiens, UniProt P01903+P01911); assay: biochemical; type: binding
T2 construct: purchased
Method: as §1, §2

HLA-A*0201 = HLA-A*0201 (Homo sapiens, UniProt P04439, D140Y/D185E/D98H/E176V/E277Q/G131W/G231S/I119V/I121R/I166T/I218V/L300P/L318F/N151K/N90K/P208A/P217A/Q86G/Q94H/R138H/R169H/T345S); assay: In vitro class I HLA binding assay (fluorescence polarization competition); conditions: allele A*0201
Method: A cell-free class I HLA binding assay that allows for in vitro quantification of peptide-HLA binding affinity in a competition format was used. In this assay, a fluorescently labeled, high binding, control peptide is loaded onto 384-well ½-area plates along with unlabeled experimental peptides. To remove endogenous peptides and render the HLA A and B molecules receptive to binding, HLA is heated at 53°C for 15 minutes and immediately added to the assay. The mixture is then allowed to stand for three days. Once the mixture has reached steady equilibrium (at 72 hours), displacement of the high binding control peptide is measured through fluorescence polarization. Binding of experimental peptides is expressed as the percent inhibition of the labeled control peptide (experimental fluorescence / control fluorescence, multiplied by 100). The percent inhibition values for each experimental peptide (across a range of molar concentrations) are used to calculate the concentration which inhibits 50% of the labeled control peptide’s specific binding. This value is referred to as the peptide’s IC50.

HLA-DRB1*0701 = HLA-DRB1*0701 (Homo sapiens, UniProt P01903+P01911, A100R/A102G/A103Q/D57E/D86V/E43K/F76Y/K127E/L162R/M171V/P40G/Q125H/Q99D/R33Q/R42Y/R54Q/S133A/S66F/T210M/V115G/Y107V/Y59L/Y89S); assay: biochemical; type: binding
Method: as §1, §2

HLA-DRB1*0801 = HLA-DRB1*0801 (Homo sapiens, UniProt P01903+P01911, A100R/A103L/A169T/D86S/F76Y/H45Y/I96F/K41T/L162R/M171V/P40S/Q125H/Q178H/Q39Y/Q99D/R218S/R42G/S66Y/V115G/W38E); assay: biochemical; type: binding
Method: as §1, §2

[1] = binding inhibition assay, NB = non-binder (no dose-dependent inhibition), read-out: DRB1*0101 IC50
[2] = binding inhibition assay, NB = non-binder (no dose-dependent inhibition)
[3] = binding inhibition assay, NB = non-binder (no dose-dependent inhibition), read-out: DRB1*1501 IC50
[4] = binding inhibition assay, NB = non-binder (no dose-dependent inhibition), read-out: DRB1*0701 IC50
[5] = binding inhibition assay, NB = non-binder (no dose-dependent inhibition), read-out: DRB1*0801 IC50

| SMILES | pIC50 (HLA-DRB1*0101; [1]) | pIC50 (HLA-DRB1*1101) | pIC50 (HLA-DRB1*1301; [2]) | pIC50 (HLA-DRB1*1501; [3]) | pIC50 (HLA-DRB1*0701; [4]) | pIC50 (HLA-DRB1*0801; [5]) | further results |
| --- | --- | --- | --- | --- | --- | --- | --- |
| CC[C@H](C)[C@H](NC(=O)[C@H](CC(N)=O)NC(=O)[C@H](CC(N)=O)NC(=O)[C@H](CCCCN)NC(=O)[C@H](Cc1c[nH]cn1)NC(=O)[C@H](CCC(=O)O)NC(=O)[C@H](CO)NC(=O)[C@H](CC(C)C)NC(=O)[C@H](CCSC)NC(=O)[C@H](C)NC(=O)[C@H](CCC(=O)O)NC(=O)[C@H](Cc1c[nH]c2ccccc12)NC(=O)[C@H](CC(C)C)NC(=O)[C@H](CCCCN)NC(=O)[C@H](CCC(=O)O)NC(C)=O)C(=O)N[C@@H](CC(N)=O)C(=O)N[C@@H](CC(N)=O)C(N)=O [EBA175_008] (Ac-EKLWEAMLSEHKNNINN-NH2) | 5.25 | < 4.00 | < 4.00 | 4.09 |  |  |  |
| CC[C@H](C)[C@H](NC(=O)[C@@H](NC(=O)[C@H](CC(N)=O)NC(=O)[C@H](CC(=O)O)NC(=O)[C@H](CC(N)=O)NC(=O)CNC(=O)[C@H](CC(N)=O)NC(=O)[C@H](CC(C)C)NC(=O)[C@@H](NC(=O)[C@@H](N)CO)C(C)C)[C@@H](C)O)C(=O)O [EBA175_0436] (H-SVLNGNDNTI-OH) |  |  |  |  |  |  | pIC50 (HLA-A*0201; cell-free competition, fluorescence polarization at 72 hours, Non-binder = no dose-dependent inhibition, read-out: IC50): 3.19 |
| CC[C@H](C)[C@H](NC(=O)[C@@H](N)CCCCN)C(=O)N[C@@H](CC(N)=O)C(=O)N[C@@H](CCC(=O)O)C(=O)N[C@H](C(=O)N[C@@H](Cc1ccc(O)cc1)C(=O)N[C@@H](CC(=O)O)C(=O)N[C@@H](CCCCN)C(=O)N[C@H](C(=O)O)C(C)C)[C@@H](C)O [RH5_212] (H-KINETYDKV-OH) |  |  |  |  |  |  | IC50 (HLA-A*0201; fluorescence polarization competition, read-out: IC50 (nM), in vitro HLA binding affinity): 10100 nM |
| CC[C@H](C)[C@H](NC(=O)[C@H](CO)NC(=O)[C@H](CCCCN)NC(=O)[C@H](Cc1ccccc1)NC(=O)[C@H](CCC(=O)O)NC(=O)[C@H](CO)NC(=O)[C@H](Cc1ccc(O)cc1)NC(=O)[C@H](CCSC)NC(=O)[C@H](CCCCN)NC(=O)[C@H](Cc1ccc(O)cc1)NC(=O)[C@H](CC(N)=O)NC(=O)[C@H](CC(N)=O)NC(=O)CNC(=O)[C@H](CCCCN)NC(=O)[C@H](CCC(N)=O)NC(=O)[C@H](Cc1ccc(O)cc1)NC(=O)[C@H](CCC(=O)O)NC(=O)[C@H](CCC(N)=O)NC(=O)[C@H](Cc1ccc(O)cc1)NC(C)=O)C(=O)N[C@@H](CCCCN)C(N)=O [EBA175_012] (Ac-YQEYQKGNNYKMYSEFKSIK-NH2) | 6.65 |  |  | 4.53 | 4.85 | 4.48 |  |
| CC[C@H](C)[C@H](NC(=O)[C@H](CCSC)NC(=O)[C@H](CO)NC(=O)[C@H](C)N)C(=O)N[C@@H](CCCCN)C(=O)N[C@@H](CO)C(=O)N[C@@H](C)C(=O)N[C@@H](Cc1ccccc1)C(=O)N[C@@H](CC(C)C)C(=O)N1CCC[C@H]1C(=O)N[C@H](C(=O)NCC(=O)N[C@@H](C)C(=O)N[C@@H](Cc1ccccc1)C(=O)N[C@@H](CCCCN)C(N)=O)[C@@H](C)O [AMA1_006B] (H-ASMIKSAFLPTGAFK-NH2) | 5.49 |  | < 4.00 | 4.84 | 5.82 |  |  |
| CC[C@H](C)[C@H](NC(C)=O)C(=O)N[C@@H](CC(C)C)C(=O)N[C@@H](C)C(=O)N[C@H](C(=O)N[C@@H](C)C(=O)N[C@H](C(=O)N[C@@H](Cc1ccc(O)cc1)C(=O)N[C@@H](CCC(=O)O)C(=O)N[C@@H](CO)C(=O)N[C@@H](CCCNC(=N)N)C(=O)N[C@H](C(=O)N[C@@H](CC(C)C)C(=O)N[C@@H](CCCCN)C(=O)N[C@@H](CCCNC(=N)N)C(=O)N[C@@H](CCCCN)C(=O)N[C@@H](Cc1ccc(O)cc1)C(=O)N[C@@H](CCCCN)C(=O)N[C@@H](CC(N)=O)C(=O)N[C@@H](CCCCN)C(=O)N[C@@H](CC(=O)O)C(=O)N[C@@H](CC(=O)O)C(=O)N[C@@H](CCCCN)C(=O)N[C@@H](CCC(=O)O)C(N)=O)[C@@H](C)CC)[C@@H](C)CC)[C@@H](C)CC [EBA175_010] (Ac-ILAIAIYESRILKRKYKNKDDKE-NH2) | 6.57 | 4.35 | 5.36 | 7.46 | 5.20 | 4.76 |  |
| CC[C@H](C)[C@H](NC(=O)[C@H](Cc1ccc(O)cc1)NC(=O)[C@H](CCC(=O)O)NC(=O)[C@H](CC(=O)O)NC(=O)[C@H](Cc1ccc(O)cc1)NC(C)=O)C(=O)N[C@@H](Cc1c[nH]cn1)C(=O)N[C@@H](CCCCN)C(=O)N[C@@H](CC(C)C)C(=O)N[C@H](C(=O)N[C@@H](CC(C)C)C(=O)N[C@@H](CO)C(=O)N[C@H](C(=O)N[C@@H](CCCCN)C(=O)N[C@@H](CO)C(=O)N[C@@H](CCCCN)C(=O)N[C@@H](CC(N)=O)C(=O)N[C@@H](CC(C)C)C(=O)N[C@@H](CC(N)=O)C(=O)N[C@@H](CCCCN)C(=O)N[C@@H](CC(=O)O)C(=O)N[C@@H](CC(C)C)C(=O)N[C@@H](CO)C(N)=O)C(C)C)[C@@H](C)CC [RH5_009] (Ac-YDEYIHKLILSVKSKNLNKDLS-NH2) | 7.37 | 4.98 | 4.05 | 8.00 | 6.42 | 5.19 |  |
| CC[C@H](C)[C@H](NC(=O)[C@H](CCSC)NC(=O)[C@H](CO)NC(=O)[C@H](C)NC(=O)[C@H](CC(N)=O)NC(=O)[C@H](CCCCN)NC(=O)[C@H](CC(N)=O)NC(=O)[C@H](CCCCN)NC(=O)[C@H](Cc1ccccc1)NC(=O)CNC(=O)[C@H](CCC(=O)O)NC(=O)[C@H](CCCCN)NC(C)=O)C(=O)N[C@@H](CCCCN)C(=O)N[C@@H](CO)C(=O)N[C@@H](C)C(=O)N[C@@H](Cc1ccccc1)C(=O)N[C@@H](CC(C)C)C(=O)N1CCC[C@H]1C(=O)N[C@H](C(=O)NCC(=O)N[C@@H](C)C(=O)N[C@@H](Cc1ccccc1)C(=O)N[C@@H](CCCCN)C(N)=O)[C@@H](C)O [AMA1_006C] (Ac-KEGFKNKNASMIKSAFLPTGAFK-NH2) |  |  |  |  |  |  | pIC50 (HLA-DRB1*0101): 5.92; pIC50 (HLA-DRB1*0701): 5.89; pIC50 (HLA-DRB1*0801): 4.30; pIC50 (HLA-DRB1*1301): < 4.00; pIC50 (HLA-DRB1*1501): 5.69 |
| CC[C@H](C)[C@H](NC(=O)[C@H](CC(C)C)NC(=O)[C@H](CCCCN)NC(=O)[C@H](CCCCN)NC(=O)[C@H](CCCCN)NC(=O)[C@H](CCCCN)NC(=O)[C@@H](NC(=O)[C@H](CC(N)=O)NC(=O)[C@H](Cc1ccc(O)cc1)NC(=O)[C@H](CCC(=O)O)NC(=O)[C@H](CC(=O)O)NC(C)=O)[C@@H](C)O)C(=O)N[C@@H](CCCCN)C(=O)N[C@@H](CS)C(=O)N[C@H](C(=O)N[C@@H](CCCCN)C(=O)N[C@@H](CC(N)=O)C(=O)N[C@@H](Cc1c[nH]cn1)C(=O)N[C@@H](CCC(=O)O)C(=O)N[C@@H](CC(N)=O)C(=O)N[C@@H](CC(=O)O)C(=O)N[C@@H](Cc1ccccc1)C(=O)N[C@@H](CC(N)=O)C(N)=O)[C@@H](C)CC [RH5_008] (Ac-DEYNTKKKKLIKCIKNHENDFN-NH2) | 6.00 |  |  | 5.29 |  | 5.59 |  |
